Measurements from US4145540A, “7β-Phosphoramido-7α-methoxycephalosporanic acid derivatives” (Takeda Chemical Industries, Ltd., priority 1975, dated 1979).

How the values were obtained:
Test in all cases: antibiotic activity (MIC)
Assay type in all cases: cell-based
[1] = test system: E. coli 0-111; details: Escherichia coli, 0111
Excerpt: (§1) The antibiotic activity of sodium 7α-methoxy-7β-(2-aminothiazol-4-ylacetamido)-3-(1-methyl-1H-tetrazol-5-ylthiomethyl)-3-cephem-4-carboxylate obtained in the reference experiment is shown as follows.

[2] = test system: E. coli NIHJ; details: Escherichia coli
Excerpt: as §1

[3] = test system: E. coli T-7; details: Escherichia coli, T7
Excerpt: as §1

[4] = test system: K. pneumoniae DT; details: Klebsiella pneumoniae
Excerpt: as §1

[5] = test system: K. pneumoniae GN 3835; details: Klebsiella pneumoniae, GN3835
Excerpt: as §1

[6] = test system: P. vulgaris GN 4413; details: Proteus vulgaris, GN4413
Excerpt: as §1

[7] = test system: Ps. aeruginosae PM3; details: Pseudomonas aeruginosa
Excerpt: as §1

[8] = test system: S. aureus 1840; details: Staphylococcus aureus
Excerpt: as §1

[9] = test system: S. aureus 209p; details: Staphylococcus aureus
Excerpt: as §1

[10] = test system: S. aureus Fs 40204; details: Staphylococcus aureus, FS40204
Excerpt: as §1

[11] = test system: Serr. marcescens IFO 12648; details: Serratia marcescens, IFO12648
Excerpt: as §1

[12] = test system: Serratia TN0024
Excerpt: as §1

For CO[C@@]1(NC(=O)Cc2csc(N)n2)C(=O)N2C(C(=O)O)=C(CSc3nnnn3C)CS[C@@H]21 [Sodium 7α-methoxy-7β-(2-aminothiazol-4-ylacetamido)-3-(1-methyl-1H-tetrazol-5-ylthiomethyl)-3-cephem-4-carboxylate], the MIC [1] was 0.78 µg/mL, the MIC [2] was 1.56 µg/mL and the MIC [3] was 6.25 µg/mL. The MIC [4] was 0.78 µg/mL, the MIC [5] was 1.56 µg/mL and the MIC [6] was 6.25 µg/mL. For the same compound, the MIC [7] was 6.25 µg/mL, the MIC [8] was 3.13 µg/mL and the MIC [9] was 1.56 µg/mL. It also gave an MIC [10] of 3.13 µg/mL, an MIC [11] of 6.25 µg/mL and an MIC [12] of 6.25 µg/mL.
